In patent US20050020638A1, “Method of stabilizing lansoprazole” (priority 2003, published 2005):
Where two headings read alike, the source gives them in different places.

Key:
[1] = Stability of stabilized vs. non-stabilized lansoprazole on storage (HPLC impurities and color); type: physicochemical; conditions: 40 °C, 75% humidity
Protocol: Chromatographic purity method of lansoprazole is detailed in the monograph in USP Forum Vol. 26 (5) [September-October 2000]. HPLC condition: Column C18 • Mobile phase: Gradient of triethylamine in water with acetonitrile • Flow: 0.8 ml/min • Detection: 285 nm Karl Fisher method for water determination is the USP method, 921. Ia, with the solvent: pyridine and ethylene glycol 9:1 as detailed in USP Forum Vol. 26 (5) [September-October 2000].

[2] = cited from earlier work
[3] = 1 month, lansoprazole of Example 2
[4] = 3 months, 'solvent free' lansoprazole of Example 3

| LNP-SO2 (sulfone derivative) after storage [1, 3] | LNPS (sulfide derivative) after storage [1, 3] | Total impurities after storage [1, 3] | Color after storage [1, 4] | LNP-SO2 (sulfone derivative) after storage [1, 4] | LNPS (sulfide derivative) after storage [1, 4] | Total impurities after storage [1, 4] | Color after storage [1, 3] | SMILES | Color after storage ([2]; 4 months at 40 °C and 75% room humidity) | Color after storage ([2]; 4 months at 40 °C, absence of humidity) |
| --- | --- | --- | --- | --- | --- | --- | --- | --- | --- | --- |
| 0.04% | 0.03% | 0.15% | Brownish | 0.04% | 0.06% | 0.31% |  | Cc1c(OCC(F)(F)F)ccnc1C[S+]([O-])c1nc2ccccc2[nH]1 (stereo not shown) [Lansoprazole not stabilized with ammonia, 2-[[3-methyl-4-(2,2,2-trifluoroethoxy)-2-pyridyl]methyl]sulfinyl-1H benzimidazole] |  |  |
| 0.03% |  | 0.05% | white | 0.02% | 0.03% | 0.08% | white | Cc1c(OCC(F)(F)F)ccnc1C[S+]([O-])c1nc2ccccc2[nH]1 (stereo not shown) [Lansoprazole stabilized with ammonia, 2-[[3-methyl-4-(2,2,2-trifluoroethoxy)-2-pyridyl]methyl]sulfinyl-1H benzimidazole] |  |  |
|  |  |  |  |  |  |  |  | Cc1c(OCC(F)(F)F)ccnc1C[S+]([O-])c1nc2ccccc2[nH]1 (stereo not shown) [lansoprazole, (2-[[[3-methyl-4-(2,2,2-trifluoro-ethoxy)-2-pyridinyl]methyl]sulfinyl]-1H-benzimidazole)] | pale brown | pale yellowish brown |
